Data published in patent publication US5126344A, “Diazine derivatives and pharmaceutical use” (Imperial Chemical Industries PLC, priority 1989, dated 1992).

Assays:
[1] = test system: pressor responses induced by AII; test: Test C: antagonism of AII-induced pressor responses in terminally-anaesthetised or conscious rats; assay type: in vivo; details: iv, rat, i.v. administration
Protocol: This in vivo test involves using terminally-anaesthetised or conscious rats in which an arterial catheter has been implanted under anaesthesia for the measurement of changes in blood pressure. The AII antagonistic effects of the test compound following oral or parenteral administration, are assessed against pressor responses induced by AII. To ensure that the effect is specific the effect of the test compound on vasopressin-induced pressor responses may also be determined in the same preparation.

[2] = target: T1, angiotensin II (AII) receptors (Cavia porcellus, UniProt Q9WV26); test: Test A: displacement of radiolabelled AII binding to cell surface membrane fraction from guinea pig adrenal gland; details: guinea pig adrenal gland membranes, read-out: IC50 (concentration for 50% displacement of radiolabelled AII binding)
T1 construct: the source of cell surface membranes is the guinea pig adrenal gland; from tissue; host or cells: guinea pig adrenal gland, cell surface membrane fraction
T1 sequence (Q9WV26 1-359): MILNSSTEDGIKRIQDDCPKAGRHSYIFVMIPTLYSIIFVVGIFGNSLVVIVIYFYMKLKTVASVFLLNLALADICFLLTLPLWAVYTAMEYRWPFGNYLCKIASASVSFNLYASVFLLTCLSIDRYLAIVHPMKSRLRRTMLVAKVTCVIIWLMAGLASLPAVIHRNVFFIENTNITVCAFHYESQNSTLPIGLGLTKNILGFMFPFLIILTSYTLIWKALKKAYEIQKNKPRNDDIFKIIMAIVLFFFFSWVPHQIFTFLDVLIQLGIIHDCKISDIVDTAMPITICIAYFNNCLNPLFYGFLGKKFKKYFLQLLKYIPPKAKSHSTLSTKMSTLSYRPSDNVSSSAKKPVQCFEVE
Protocol: This in vitro procedure involves the incubation of the test compound initially at a concentration of 100 micromolar (or less) in a buffered mixture containing fixed concentrations of radiolabelled AII and a cell surface membrane fraction prepared from a suitable angiotensin target tissue. In this test, the source of cell surface membranes is the guinea pig adrenal gland which is well known to respond to AII. Interaction of the radiolabelled AII with its receptors (assessed as radiolabel bound to the particulate membrane fraction following removal of unbound radiolabel by a rapid filtration procedure such as is standard in such studies) is antagonized by compounds which also bind to the membrane receptor sites and the degree of antagonism (observed in the test as displacement of membrane-bound radioactivity) is determined readily by comparing the receptor-bound radioactivity in the presence of the test compound at the specified test concentration with a control value determined in the absence of the test compound. Using this procedure compounds showing at least 50% displacement of radiolabelled AII binding at a concentration of 10^-4 M are retested at lower concentrations to determine their potency. […]

IC50 [2]: 0.02 µM
Compound: CCc1cc(OCc2ccc(-c3ccccc3-c3nnn[nH]3)cc2)c2nc(OC)ccc2n1.Cl [Example 4, 2-ethyl-6-methoxy-4-[(2'-(1H-tetrazol-5-yl)-biphenyl-4-yl)methoxy]-1,5-naphthyridine hydrochloride]
ED50 [1]: 0.6 mg/kg
